Experimental data from patent US10208074B2, “Pyrazole compounds and method for making and using the compounds” (Rigel Pharmaceuticals, Inc., priority 2015, dated 2019).
Structures can show the parent of a compound that is named as a salt. Where two headings read alike, the source gives them in different places.

How the values were obtained:
IL-23 (p19/p40) = experiment: IL23-p19 ELISA, Dendritic, LPS (compound screening using DC cells); format: cell-based, Human; conditions: PBMC-derived DC cells, IFNγ primed, LPS 1 μg/ml, 18 hours, 10 pt, read-out: IL23-p19 ELISA, Dendritic, LPS, 10 pt, EC50
Protocol: Compound Screening Using DC Cells
Human PBMC cells (400 million) obtained from the vendor were transferred into a T-175 flask containing 15 ml RPMI media (10% FBS) and incubate for 2 hours at 37° C. After 2 hours, the media including floating cells was aspirated out carefully and 12 ml of fresh RPMI media (10% FBS) containing GMCSF (100 ng/ml) and IL4 (20 ng/ml) was added, and the flask was kept in a 37° C. incubator for 7 days.
After 3 days, fresh GMCSF (100 ng/ml) and IL4 (20 ng/ml) were added to the flask and the incubation continued. After 7 days, the fully differentiated cells were harvested by spinning down (1200 rpm/5 min) and aspirating the media. The cells were suspended in fresh RPMI media (10% FBS) containing 50 ng/ml IFNγ (1000 U/ml) and then plated (50K/well in 100 μl) onto a white clear bottom 96 well plate and left in a 37° C. incubator for 24 hours.
After 24 hours incubation, 100 μl of RPMI media was added containing 2× concentrated test compound per well to the above cell-culture media (final concentration becomes 1×) and the plates were pre-incubated for 1 hour at 37° C. before stimulating with LPS.
After 1 hour compound pre-incubation, 10 piper well of 20× concentrated LPS solution in RPMI media was added to give a final concentration of 1 μg/ml. The mixture was shaken and incubated the plates at 37° C. for an additional 18 hours.
155 μl of the supernatant was harvested from each well carefully (without the tip touching the bottom of the well) and to the remaining 50 μl/well of the cell culture plate was added 50 μl of Cell Titer Glo reagent. The mixture was incubated for 1-2 minutes on a shaker and the plate was read for luminescence intensity to determine the compound cytotoxicity. The cell culture supernatant collected above was used to carry out IL23 ELISA (65 μl -Supernatant) and IL10 ELISA (90 μl—Supernatant) as described below.
Human IL-23 (p19/p40) ELISA Protocol (e-Biosciences)
To 10.5 ml PBS add 50 μl of anti-IL23 (p19) was added capture antibody (2.5 μg/ml). The mixture was mixed well and 100 μl of the coating solution was added to each well of the 96 well white plates from Pierce. The wells were covered and incubated overnight at 4° C.
The anti-IL23 (p19)-antibody-coated plates were washed 2× using TBST (use plate washer) and blocked using 200 μl of 0.5% Casein for 1.5-2 hours at room temperature with shaking.
The plates were washed 2× using TBST and the supernatant was transferred (65 μl/well) to the above pre-blocked/IL23(p19)-antibody-coated 96 well plate, and incubated at room temperature for 1.5 hours with shaking.
The plates were washed 4× using TBST (plate washer) and 100 μl/well detection antibody solution prepared from 2 μl of biotin labeled anti-IL-12 (p40/p70) antibody in 11 ml 1% BSA/PBS solution (1-5000 dilution) was added. The plates were incubated for 1 hour with shaking at Room temperature.
Again, the plates were washed 4× with TBST and 100 μl of HRP labeled Streptavidin (R&D Systems) solution (10 μl/10 ml 1% BSA solution) was added, and the plates were incubated at room temperature for another 45 minutes with shaking.
After 45 minutes, the plates were washed with TBST 4× and 100 ul/well Super Signal ELISA Pico Chemiluminescent Substrate from Pierce (3.5 ml A+3.5 ml B+3.5 ml MQ water) was added. The plates were shaken for 1-2 minutes then read on a plate reader.

IL-23p19 = experiment: LPS induced IL23p19 in THP-1 cells (with IFNγ primed) assay; format: cell-based, Human; conditions: THP-1 cells, IFNγ primed, LPS 1 ug/mL, 18 hours, 10 pt, read-out: IL23-p19 ELISA, THP1-IFNy, LPS, 10 pt EC50
Description: LPS Induced IL23p19 in THP-1 Cells (with IFNγ Primed) Assay
THP-1 Cells (ATCC, Cat#TIB-202), Dimethyl Sulfoxide (DMSO) (Sigma-Aldrich, Cat#D2650), RPMI 1640 (Cellgro, Cat#10-040-CM), Fetal Bovine Serum (Sigma, Cat#F4135), Albumin From Bovine Serum (BSA) (Sigma-Aldrich, Cat#A7906), LPS (Serotype K-235, Sigma, Product Number L 2143), IFNγ (Peprotech, Cat#300-02) Capture antibody: Human IL-23p19 ELISA (e-Bioscience, Cat. #14-7238-85), Detection antibody: Primary Mouse Biotinylated anti-human IL-12(p40/p70) (e-Bioscience, Cat. #13-7129-85), Secondary HRP-conjugated Streptavidin (R&D Systems, Cat#DY998), 1×PBST Washing Buffer (PBS-Tween tablet) (VWR International, Cat#80058-558), ELISA Blocking Buffer (PBS with 1% BSA), ELISA Dilution Buffer (PBS with 1% BSA), 384 Well Flat-Bottom, MaxiSorp Black Immuno Plates (Thermo Scientific, Cat#12-565-346), 384 Well Flat-Bottom, White Tissue Culture Plates (Thermo Scientific, Cat#12-565-343), Super Signal ELISA Pico Chemiluminescent Substrate (Thermo Scientific, Cat#37070), Cell Titer Glo reagent (Promega, Cat#G7573), Positive control, IKK2VI inhibitor (Calbiochem, Cat#401483), AquaMax 4000 plate washer (Molecular Devices), Luminometer, Wallac Victor2 1420 Multilabel Counter.
On day 1, 50K/well THP-1 cells were seeded and primed with IFNγ (50 ng/mL) in 384-well plates for about 18 hours in RPMI media with 10% FBS. On day 2, the compound was serially diluted in DMSO from 5 mM in 3-fold dilutions, and then diluted 1:125 in RPMI media with 10% FBS. 50 μL/well 2× compound was added to 50 μL/well THP-1 cells (with IFNγ primed) in duplicate in 384 well tissue culture plates. The cells were pre-incubated with compound for 1 hour at 37° C., 5% CO2 before addition of 10 μL/well 11×LPS to give a final concentration of 1 ug/mL LPS. Day 3, after stimulation for 18 hours at 37° C., 5% CO2, the assay plate was centrifuged and 70 μL/well supernatant was harvested. IL-23p19 protein in 70 μL/well of supernatant was measured by sandwich ELISA, and 25 μl/well Cell Titer Glo reagent was added to the remaining cells to measure compound toxicity.
Maxisorp immuno ELISA plates were pre-coated with 25 μL/well of anti-IL-23p19 capture antibody (2.5 ug/mL) in PBS overnight at room temperature. After washing with 1× PBST, the plates were blocked using 100 μL/well of 1% BSA in PBS for 2 hours at room temperature. The plates were washed three times with 1×PBST and 70 μL/well supernatant were added. The plates were incubated at room temperature for 2 hours with shaking and washed three times with 1×PBST. 25 μL/well of biotin labeled anti-IL-12(p40/p70) detection antibody (100 ng/mL) in PBS with 1% BSA was added and the plates were incubated at room temperature for 2 hours with shaking. After washing three times with 1×PBST, 25 μL/well of streptavidin-HRP (1:200) in PBS with 1% BSA was added and the plates were incubated at room temperature for 20 minutes with shaking. The plates were washed three times with 1× PBST and 25 μL/well of Super Signal ELISA Pico Chemiluminescent Substrate were added. The plates were read with a luminometer, and the chemiluminescence values were entered into Athena (Rigel) for curve fitting, EC50 calculation, and database storage.

EC50 (IL-23 (p19/p40); Homo sapiens, 18 h)	EC50 (IL-23p19; Homo sapiens, THP-1, 18 h)	SMILES	further results
63 nM	276 nM	COCCn1cc(NC(=O)c2csc(-c3cn[nH]c3)n2)c(-c2ccccn2)n1 [II-28, N-(1-(2-methoxyethyl)-3-(pyridin-2-yl)-1H-pyrazol-4-yl)-2-(1H-pyrazol-4-yl)thiazole-4-carboxamide]	–
62.3 nM	50 nM	CCO[C@H]1C[C@@H](n2cc(NC(=O)c3csc(-c4cn[nH]c4)n3)c(-c3ccccn3)n2)C1 [II-11, N-(1-((1,3-cis)-3-ethoxycyclobutyl)-3-(pyridin-2-yl)-1H-pyrazol-4-yl)-2-(1H-pyrazol-4-yl)thiazole-4-carboxamide]	–
36.9 nM	43.4 nM	CCO[C@H]1C[C@@H](n2cc(NC(=O)c3coc(-c4cn[nH]c4)n3)c(-c3ccccn3)n2)C1 [III-4, N-(1-((1s,3s)-3-ethoxycyclobutyl)-3-(pyridin-2-yl)-1H-pyrazol-4-yl)-2-(1H-pyrazol-4-yl)oxazole-4-carboxamide]	–
5.7 nM	43.4 nM	O=C(Nc1cn([C@H]2C[C@@H](O)C2)nc1-c1ccccn1)c1csc(-c2cn[nH]c2)n1 [II-14, N-(1-((1,3-cis)-3-hydroxycyclobutyl)-3-(pyridin-2-yl)-1H-pyrazol-4-yl)-2-(1H-pyrazol-4-yl)thiazole-4-carboxamide]	–
410 nM	42 nM	CCO[C@H]1CC[C@H](n2cc(NC(=O)c3csc(-c4cn[nH]c4)n3)c(-c3ncccc3F)n2)CC1 [II-169, N-(1-((trans)-4-ethoxycyclohexyl)-3-(3-fluoropyridin-2-yl)-1H-pyrazol-4-yl)-2-(1H-pyrazol-4-yl)thiazole-4-carboxamide]	–
159 nM	43.8 nM	O=C(Nc1cn(C2CCOC2)nc1-c1nccs1)c1csc(-c2cn[nH]c2)n1 (centres unmarked) [II-115, 2-(1H-pyrazol-4-yl)-N-(1-(tetrahydrofuran-3-yl)-3-(thiazol-2-yl)-1H-pyrazol-4-yl)thiazole-4-carboxamide]	–

Second part, the molecule before the results:

SMILES	EC50 (IL-23 (p19/p40); Homo sapiens, 18 h)	EC50 (IL-23p19; Homo sapiens, THP-1, 18 h)	further results
O=C(Nc1cn(C2CCOCC2)nc1-c1nccs1)c1ccc(-c2cn[nH]c2)o1 [Compound I-60, 5-(1H-pyrazol-4-yl)-N-(1-(tetrahydro-2H-pyran-4-yl)-3-(thiazol-2-yl)-1H-pyrazol-4-yl)furan-2-carboxamide formate]	–	–	EC50 (IL-23 (p19/p40); formate): 33.8 nM; EC50 (IL-23p19; formate): 174 nM
COCCn1cc(NC(=O)c2ccc(-c3cn[nH]c3)o2)c(-c2ccccn2)n1 [Compound I-5, N-(1-(2-methoxyethyl)-3-(pyridin-2-yl)-1H-pyrazol-4-yl)-5-(1H-pyrazol-4-yl)furan-2-carboxamide]	136 nM	82.6 nM	–
CCO[C@H]1C[C@@H](n2cc(NC(=O)c3csc(-c4cnn(COP(=O)(O)O)c4)n3)c(-c3ccccn3)n2)C1 [II-85, (4-(4-((1-((1,3-cis)-3-ethoxycyclobutyl)-3-(pyridin-2-yl)-1H-pyrazol-4-yl)carbamoyl)thiazol-2-yl)-1H-pyrazol-1-yl)methyl phosphate triethylamine salt]	–	–	EC50 (IL-23 (p19/p40)): 287 nM; EC50 (IL-23p19): 49.9 nM
O=C(Nc1cn([C@H]2C[C@@H](OCC(F)(F)F)C2)nc1-c1ncccc1F)c1ccc(-c2cn[nH]c2)o1 [Compound I-152, N-(3-(3-fluoropyridin-2-yl)-1-((1s,3s)-3-(2,2,2-trifluoroethoxy)cyclobutyl)-1H-pyrazol-4-yl)-5-(1H-pyrazol-4-yl)furan-2-carboxamide formate]	71.6 nM	31.9 nM	–
COCCn1cc(NC(=O)c2ccc(-c3c[nH]nc3C)o2)c(-c2ccccn2)n1 [Compound I-6, N-(1-(2-methoxyethyl)-3-(pyridin-2-yl)-1H-pyrazol-4-yl)-5-(3-methyl-1H-pyrazol-4-yl)furan-2-carboxamide formic acid]	–	264 nM	EC50 (IL-23 (p19/p40); formic acid): 993 nM
CCOCCn1cc(NC(=O)c2ccc(-c3cn[nH]c3)o2)c(-c2nccs2)n1 [Compound I-119, N-(1-(2-ethoxyethyl)-3-(thiazol-2-yl)-1H-pyrazol-4-yl)-5-(1H-pyrazol-4-yl)furan-2-carboxamide]	–	–	EC50 (IL-23 (p19/p40)): 430 nM; EC50 (IL-23p19): 154 nM
CCOCCn1cc(NC(=O)c2ccc(-c3cnn(C)c3)o2)c(-c2ccccn2)n1 [Compound I-45, N-(1-(2-ethoxyethyl)-3-(pyridin-2-yl)-1H-pyrazol-4-yl)-5-(1-methyl-1H-pyrazol-4-yl)furan-2-carboxamide formate]	5450 nM	1080 nM	–
